# Experimental data as given in PubChem BioAssay (NCI).
#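 Test compounds were applied to cells in 96-well plates for 48 hours at 5 doses. GI50: concentration for 50% inhibition of growth. Definition used: TGI = concentration required for complete inhibition of growth.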
# Key:
# Test in all cases: DTP human tumour cell line panel, 48 h
# [1] = system: RXF 393 renal
# [2] = system: MDA-MB-231 breast
# [3] = system: OVCAR-3 ovarian
# [4] = system: SF-539 CNS
# [5] = system: HOP-92 NSCLC
# [6] = system: HL-60(TB) leukemia
# [7] = system: SF-268 CNS
# [8] = system: DU-145 prostate
# [9] = system: K-562 leukemia
# [10] = system: UO-31 renal
# [11] = system: IGROV1 ovarian
# [12] = system: HS 578T breast
# [13] = system: A498 renal
# [14] = system: COLO 205 colon
# [15] = system: UACC-62 melanoma
# [16] = system: T-47D breast
# [17] = system: 786-0 renal
# [18] = system: TK-10 renal
# [19] = system: NCI-H23 lung
# [20] = system: OVCAR-8 ovarian
# [21] = system: PC-3 prostate
# [22] = system: BT-549 breast
# [23] = system: SK-MEL-2 melanoma
# [24] = system: HT29 colon
# [25] = system: MCF7 breast
# [26] = system: HOP-62 NSCLC
# [27] = system: MALME-3M melanoma
# [28] = system: SF-295 CNS
# [29] = system: M14 melanoma
# [30] = system: NCI/ADR-RES ovarian
# [31] = system: U251 CNS
# [32] = system: LOX IMVI melanoma
# [33] = system: NCI-H226 lung
# [34] = system: ACHN renal
# [35] = system: A549 NSCLC
# [36] = system: RPMI-8226 leukemia
# [37] = system: OVCAR-5 ovarian
# [38] = system: SNB-75 CNS
# [39] = system: SK-MEL-28 melanoma
# [40] = system: CAKI-1 renal
# [41] = system: HCT-116 colon
# [42] = system: MDA-MB-435
# [43] = system: UACC-257 melanoma
# [44] = system: NCI-H522 lung
# [45] = system: EKVX NSCLC
# [46] = system: MOLT-4 leukemia
# [47] = system: SNB-19 CNS
# [48] = system: HCT-15 colon
# [49] = system: OVCAR-4 ovarian
# [50] = system: SN12C renal
# [51] = system: SK-OV-3 ovarian
# [52] = system: CCRF-CEM leukemia
# [53] = system: SK-MEL-5 melanoma
# [54] = system: KM12 colon
# [55] = system: NCI-H460 lung
# [56] = system: HCC-2998 colon
# [57] = system: SW-620 colon
smiles,measurement,setting,value
CN(C)C=Nc1c2ccccc2nc2ccccc12,TGI,[1],16.4 µM
same,TGI,[2],21.5 µM
same,TGI,[3],13.4 µM
same,TGI,[4],10.4 µM
same,TGI,[5],22.3 µM
same,TGI,[6],18.2 µM
same,TGI,[7],13.1 µM
same,TGI,[8],39.7 µM
same,TGI,[9],22.6 µM
same,TGI,[10],29.5 µM
same,TGI,[11],26.3 µM
same,TGI,[12],6.82 µM
same,TGI,[13],21 µM
same,TGI,[14],8.87 µM
same,TGI,[15],7.65 µM
same,TGI,[16],9.67 µM
same,TGI,[17],16.9 µM
same,TGI,[18],40 µM
same,TGI,[19],15.8 µM
same,TGI,[20],18.3 µM
same,TGI,[21],14.5 µM
same,TGI,[22],13.2 µM
same,TGI,[23],9.26 µM
same,TGI,[24],14.5 µM
same,TGI,[25],12.1 µM
same,TGI,[26],25.4 µM
same,TGI,[27],12.7 µM
same,TGI,[28],21.6 µM
same,TGI,[29],16.2 µM
same,TGI,[30],34.6 µM
same,TGI,[31],15 µM
same,TGI,[32],7.13 µM
same,TGI,[33],9.06 µM
same,TGI,[34],34 µM
same,TGI,[35],17.3 µM
same,TGI,[36],6.88 µM
same,TGI,[37],32.8 µM
same,TGI,[38],13.6 µM
same,TGI,[39],5.42 µM
same,TGI,[40],> 100 µM
same,TGI,[41],17.8 µM
same,TGI,[42],15.1 µM
same,TGI,[43],9.3 µM
same,TGI,[44],4.99 µM
same,TGI,[45],29.1 µM
same,TGI,[46],9.05 µM
same,TGI,[47],17.9 µM
same,TGI,[48],32.8 µM
same,TGI,[49],21.1 µM
same,TGI,[50],11.9 µM
same,TGI,[51],23.4 µM
same,TGI,[52],21.2 µM
same,TGI,[53],12.5 µM
COc1ccc(/C=C2\COc3ccc(O)c(O)c3C2=O)c(OC)c1OC,GI50,[1],1.87 µM
same,TGI,[1],3.54 µM
same,GI50,[2],2.22 µM
same,TGI,[2],7.43 µM
same,GI50,[3],2.94 µM
same,TGI,[3],11.5 µM
same,GI50,[4],2.4 µM
same,TGI,[4],6.87 µM
same,GI50,[5],2.97 µM
same,TGI,[5],9.91 µM
same,GI50,[6],2.4 µM
same,TGI,[6],6.71 µM
same,GI50,[7],3.49 µM
same,TGI,[7],21.3 µM
same,GI50,[8],3.64 µM
same,TGI,[8],26 µM
same,GI50,[9],2.11 µM
same,TGI,[9],> 100 µM
same,GI50,[10],1.42 µM
same,TGI,[10],3.02 µM
same,GI50,[11],2.09 µM
same,TGI,[11],7.21 µM
same,GI50,[12],4.22 µM
same,TGI,[12],> 100 µM
same,GI50,[13],5.54 µM
same,TGI,[13],20.8 µM
same,GI50,[14],2.78 µM
same,TGI,[14],10 µM
same,GI50,[54],2.89 µM
same,TGI,[54],10.8 µM
same,GI50,[15],1.88 µM
same,TGI,[15],3.88 µM
same,GI50,[16],2.58 µM
same,TGI,[16],9.08 µM
same,GI50,[55],2.4 µM
same,TGI,[55],5.75 µM
same,GI50,[17],2.95 µM
same,TGI,[17],10.7 µM
same,GI50,[18],4.03 µM
same,TGI,[18],23.3 µM
same,GI50,[19],3.22 µM
same,TGI,[19],14.5 µM
same,GI50,[20],3.16 µM
same,TGI,[20],> 100 µM
same,GI50,[21],2.35 µM
same,TGI,[21],61.8 µM
same,GI50,[22],4.03 µM
same,TGI,[22],12 µM
same,GI50,[23],4.7 µM
same,TGI,[23],31.1 µM
same,GI50,[24],3.1 µM
same,TGI,[24],13.8 µM
same,GI50,[25],2.65 µM
same,TGI,[25],86.5 µM
same,GI50,[26],3.12 µM
same,TGI,[26],20 µM
same,GI50,[27],1.77 µM
same,TGI,[27],4.34 µM
same,GI50,[28],8.1 µM
same,TGI,[28],> 100 µM
same,GI50,[29],2.39 µM
same,TGI,[29],8.93 µM
same,GI50,[31],2.66 µM
same,TGI,[31],11.2 µM
same,GI50,[32],1.78 µM
same,TGI,[32],3.49 µM
same,GI50,[33],2.66 µM
same,TGI,[33],7.25 µM
same,GI50,[34],1.78 µM
same,TGI,[34],3.96 µM
same,GI50,[56],2.18 µM
same,TGI,[56],4.48 µM
same,GI50,[35],3.11 µM
same,TGI,[35],> 100 µM
same,GI50,[36],0.457 µM
same,TGI,[36],2.95 µM
same,GI50,[37],3.64 µM
same,TGI,[37],12.8 µM
same,GI50,[38],3.09 µM
same,TGI,[38],86.6 µM
same,GI50,[39],2.63 µM
same,TGI,[39],7.37 µM
same,GI50,[40],2.42 µM
same,TGI,[40],11.3 µM
same,GI50,[57],2.77 µM
same,TGI,[57],9.53 µM
same,GI50,[41],1.75 µM
same,TGI,[41],3.96 µM
same,GI50,[42],2.21 µM
same,TGI,[42],6.57 µM
same,GI50,[43],2.88 µM
same,TGI,[43],18.3 µM
same,GI50,[44],0.933 µM
same,TGI,[44],3.22 µM
same,GI50,[45],3.65 µM
same,TGI,[45],25.8 µM
same,GI50,[46],1.87 µM
same,TGI,[46],> 100 µM
same,GI50,[47],3.69 µM
same,TGI,[47],15.7 µM
same,GI50,[48],1.74 µM
same,TGI,[48],5.51 µM
same,GI50,[49],2.74 µM
same,TGI,[49],17.8 µM
same,GI50,[50],2.55 µM
same,TGI,[50],8.95 µM
same,GI50,[51],3.24 µM
same,TGI,[51],> 100 µM
same,GI50,[53],2.25 µM
same,TGI,[53],5.33 µM
